{"source": "patent US20250367189A1", "about": "“2-BROMO-LYSERGIC ACID DI[…] SUBSTANCE ABUSE” (Ceruvia Lifesciences LLC, priority 2020, published 2025)", "key": {"male fosTRAP2×Ai14 mice": {"system": "male fosTRAP2×Ai14 mice", "test": "Two-bottle choice (water vs 20% ethanol) drinking after ethanol exposure", "assay_type": "in vivo", "conditions": "for ethanol preference, within-group mean difference week 1 vs. week 3: follow-up week 1 (after dose 1) vs week 3 (after dose 2); for ethanol consumption, mean difference Saline vs. treatment: planned contrast across 4 follow-up weeks, LSD 50 ug/kg or BOL-148 3.0 mg/kg intraperitoneal; for effect of treatment on alcohol preference (summary) / additive effect of a second dose on alcohol preference: summary in words; for additive effect of a second dose on alcohol preference: two doses, weeks 1 and 3", "text": "Twenty-five adult (12-30-week old), male fosTRAP2×Ai14 mice were bred in-house. Generation of the fosTRAP2 and FosTRAP lines were previously described (Guenthner, et al.). fosTRAP2 mice were crossed with Ai14 mice to obtain the mice used in this study. Mice were single-housed on a reverse light-dark cycle and given unlimited access to standard mouse chow and water. Animals were given a week to habituate to single housing, after which they were given free access to 2 bottles containing water and 20% ethanol for 24-hour periods beginning at the start of their dark cycle, 5 days per week (Monday-Friday) for 4 weeks (ethanol exposure). Amount of water and ethanol consumed (by volume and weight) were measured for each mouse across the final 5 days of the ethanol exposure period, and ethanol preference was counterbalanced across treatment group by the mean ethanol preference by weight (corrected for body weight) during this period.\nFollowing 4 weeks of ethanol exposure, animals were administered one of 3 treatments via a single intraperitoneal injection 10 minutes prior to onset of the dark cycle/day one in a five-day cycle of alcohol exposure: saline, LSD 50 ug/kg, or BOL-148 3.0 mg/kg. Following administration of treatment, animals were placed back into their home cages with free access to standard mouse chow and water. After 10 minutes, 12 animals from each treatment group were given free access to 2 bottles containing water and 20% ethanol for 24 hours daily for 4 weeks (alcohol preference). Amount of water and ethanol consumed (by volume and weight) were measured daily at the end of the light cycle. Positions of bottles containing water and 20% ethanol were alternated daily to prevent the formation of place preference. An additional 2-4 animals per treatment group were given free access to standard mouse chow and water, and ambulatory activity as well as head-twitching behavior (thought to correspond with hallucinogenicity of substances in mice), was measured for 35 minutes following treatment.\nFor all hypotheses, data were analyzed using Mixed Models for Repeated Measures (MMRM), including fixed effects of Treatment (Saline, BOL, LSD), Week (1-4), Day (1-5), and two- and three-way interactions between Treatment and Day/Week. Repeated Effects were represented as a nested within-subjects variable (days within weeks). Data were analyzed separately for each of 3 dependent variables: ethanol consumption (mg and ml consumed), ethanol preference (ethanol consumption/total fluid consumption), and total fluid consumption (mg and ml consumed). For hypothesis 1a, a priori between-group comparisons are performed to contrast ethanol consumption, ethanol preference, and total fluid consumption between the vehicle- and LSD-treated groups. For hypothesis 1b, a priori between-group comparisons are performed to contrast ethanol consumption, ethanol preference, and total fluid consumption between the LSD-treated group at follow-up weeks 1 versus 3. For hypothesis 2a, a priori between-group comparisons are performed to contrast ethanol consumption, ethanol preference, and total fluid consumption between the vehicle- and BOL-148-treated groups. For hypothesis 2b, a priori between-group comparisons are performed to contrast ethanol consumption, ethanol preference, and total fluid consumption between the LSD- and BOL-148-treated groups. For each hypothesis, with 3 groups of 5-10 animals (total n=25) and 20 days of repeated measurements (autocorrelation=0.5), there is power of 0.8 to detect moderately-sized effects of approximately d=0.3 at alpha=0.05."}, "5HT2A receptors": {"biological_target": "5HT2A receptors (Homo sapiens, UniProt P28223)", "sequence (P28223 whole entry)": "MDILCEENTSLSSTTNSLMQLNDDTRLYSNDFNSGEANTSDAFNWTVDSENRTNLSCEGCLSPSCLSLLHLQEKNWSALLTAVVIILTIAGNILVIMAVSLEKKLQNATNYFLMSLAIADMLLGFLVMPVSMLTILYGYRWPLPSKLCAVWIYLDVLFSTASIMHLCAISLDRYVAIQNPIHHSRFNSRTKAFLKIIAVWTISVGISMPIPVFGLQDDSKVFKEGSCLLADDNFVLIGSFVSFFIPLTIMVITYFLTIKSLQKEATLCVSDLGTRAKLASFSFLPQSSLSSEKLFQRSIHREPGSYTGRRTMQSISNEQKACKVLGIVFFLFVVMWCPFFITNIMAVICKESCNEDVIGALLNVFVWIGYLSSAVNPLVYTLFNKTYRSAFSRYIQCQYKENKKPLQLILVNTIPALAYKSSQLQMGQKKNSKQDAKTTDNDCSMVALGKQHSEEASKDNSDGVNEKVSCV", "conditions": "cited from earlier work"}, "5-HT receptors": {"system": "5-HT receptors", "conditions": "cited from earlier work"}, "[1]": {"conditions": "in vivo; cited from earlier work"}, "humans": {"system": "humans", "conditions": "cited from earlier work"}, "rats [2]": {"system": "rats", "conditions": "cited from earlier work"}, "human participants": {"system": "human participants", "conditions": "0.03 mg/kg delivered daily; cited from earlier work"}, "rats [3]": {"system": "rats", "conditions": "cited from earlier work", "remark": "listed apart in the source"}, "[4]": {"system": "participants with alcoholism", "conditions": "1 to 6 DPT sessions; cited from earlier work"}, "[5]": {"system": "participants with alcoholism", "conditions": "DPT treatment vs conventional treatment; cited from earlier work"}, "[6]": {"system": "participants with alcohol dependence", "conditions": "single high-dose LSD session vs control, six trials; cited from earlier work"}, "C57BL/6J mice": {"system": "C57BL/6J mice", "conditions": "cited from earlier work"}, "rodents": {"system": "rodents", "conditions": "cited from earlier work"}, "5HT1A receptors": {"biological_target": "T1, 5HT1A receptors (Homo sapiens, UniProt P08908)", "T1 sequence (P08908 1-422)": "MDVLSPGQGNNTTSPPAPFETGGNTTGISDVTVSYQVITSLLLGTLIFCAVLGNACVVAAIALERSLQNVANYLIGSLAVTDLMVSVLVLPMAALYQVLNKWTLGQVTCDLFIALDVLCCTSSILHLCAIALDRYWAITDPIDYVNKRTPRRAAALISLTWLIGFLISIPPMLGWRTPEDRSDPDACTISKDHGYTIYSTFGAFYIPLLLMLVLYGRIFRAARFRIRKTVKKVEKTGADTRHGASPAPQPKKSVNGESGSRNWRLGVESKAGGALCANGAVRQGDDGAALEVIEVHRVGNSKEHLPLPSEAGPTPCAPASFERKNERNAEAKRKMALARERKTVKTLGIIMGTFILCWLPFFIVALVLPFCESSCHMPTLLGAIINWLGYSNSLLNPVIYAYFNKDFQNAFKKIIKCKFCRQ", "conditions": "cited from earlier work"}, "dopamine receptors": {"system": "dopamine receptors", "conditions": "cited from earlier work"}, "[7]": {"conditions": "LSD 50 ug/kg or BOL-148 3.0 mg/kg IP"}}}
{"smiles": "CCN(CC)C(=O)[C@@H]1C=C2c3cccc4[nH]c(Br)c(c34)C[C@H]2N(C)C1", "note": "[BOL-148, 2-bromo-lysergic acid diethylamide]", "values": [{"measurement": "ethanol preference, within-group mean difference week 1 vs. week 3", "setting": "male fosTRAP2×Ai14 mice; [7]", "result": 0.119}, {"measurement": "ethanol consumption, mean difference Saline vs. treatment", "setting": "male fosTRAP2×Ai14 mice", "result": "0.004 mg total ethanol consumed/mg of body weight"}, {"measurement": "effect of treatment on alcohol preference (summary)", "setting": "male fosTRAP2×Ai14 mice", "result": "modest effect"}, {"measurement": "additive effect of a second dose on alcohol preference", "setting": "male fosTRAP2×Ai14 mice", "result": "an additive effect of BOL-148 was found"}, {"measurement": "activity at 5HT2A receptors", "setting": "5HT2A receptors", "result": 5, "unit": "HT2A antagonist activity"}, {"measurement": "effect on 5-HT receptors", "setting": "5-HT receptors", "result": "neutral antagonist"}, {"measurement": "psychedelic activity", "setting": "[1]", "result": "inactive as a psychedelic"}, {"measurement": "blockade of the effects of LSD in humans", "setting": "humans", "result": "could block the effects of LSD"}, {"measurement": "blockade of the effects of LSD by pre-treatment", "setting": "rats [2]", "result": "will not block the effects of LSD"}, {"measurement": "effect on cluster headaches", "setting": "human participants", "result": "effective at reducing cluster headaches"}]}
{"smiles": "COc1cc(CC(C)N)c(OC)cc1I", "note": "(stereo not shown) [DOI, 2,5-dimethoxy-4-iodoamphetamine]", "values": [{"measurement": "effect on alcohol preference", "setting": "rats [3]", "result": "reduce alcohol preference"}]}
{"smiles": "CCCN(CCC)CCc1c[nH]c2ccccc12", "note": "[DPT, Dipropyltryptamine]", "values": [{"measurement": "clinical outcomes including abstinence at 6 months", "setting": "[4]", "result": "highly significant improvement"}, {"measurement": "clinical outcomes at 6 month follow-up vs other groups", "setting": "[5]", "result": "no significant differences"}]}
{"smiles": "CCN(CC)C(=O)[C@@H]1C=C2c3cccc4[nH]cc(c34)C[C@H]2N(C)C1", "note": "[LSD, lysergic acid diethylamide]", "values": [{"measurement": "ethanol preference, mean difference LSD vs. BOL-148", "setting": "male fosTRAP2×Ai14 mice; LSD 50 ug/kg versus BOL-148 3.0 mg/kg treated groups", "result": 0.081}, {"measurement": "ethanol preference, within-group mean difference week 1 vs. week 3", "setting": "male fosTRAP2×Ai14 mice; [7]", "result": 0.014}, {"measurement": "ethanol consumption, mean difference Saline vs. treatment", "setting": "male fosTRAP2×Ai14 mice", "result": "0.050 mg total ethanol consumed/mg of body weight"}, {"measurement": "ethanol preference (ethanol consumption/total fluid consumption), mean difference Saline vs. treatment", "setting": "male fosTRAP2×Ai14 mice; planned contrast across follow-up, LSD 50 ug/kg or BOL-148 3.0 mg/kg IP", "result": 0.168}, {"measurement": "ethanol consumption, mean difference Saline vs. LSD, Week 1", "setting": "male fosTRAP2×Ai14 mice; post-hoc, Week 1 (injection week), LSD 50 ug/kg IP", "result": "0.062 mg total ethanol consumed/mg of body weight"}, {"measurement": "ethanol consumption, mean difference Saline vs. LSD, Week 2", "setting": "male fosTRAP2×Ai14 mice; post-hoc, Week 2 (non-injection week), LSD 50 ug/kg IP", "result": "0.077 mg total ethanol consumed/mg of body weight"}, {"measurement": "ethanol consumption, mean difference Saline vs. LSD, Week 3", "setting": "male fosTRAP2×Ai14 mice; post-hoc, Week 3 (injection week), LSD 50 ug/kg IP", "result": "−0.029 mg total ethanol consumed/mg of body weight"}, {"measurement": "ethanol consumption, mean difference Saline vs. LSD, Week 4", "setting": "male fosTRAP2×Ai14 mice; post-hoc, Week 4 (non-injection week), LSD 50 ug/kg IP", "result": "0.089 mg total ethanol consumed/mg of body weight"}, {"measurement": "effect of treatment on alcohol preference (summary)", "setting": "male fosTRAP2×Ai14 mice", "result": "becomes apparent immediately, and remains stable for weeks"}, {"measurement": "additive effect of a second dose on alcohol preference", "setting": "male fosTRAP2×Ai14 mice", "result": "An additive effect was not found"}, {"measurement": "odds of improvement at first post-treatment follow-up (OR)", "setting": "[6]", "result": 1.96}, {"measurement": "effect on alcohol consumption and alcohol preference", "setting": "C57BL/6J mice; acute administration of 50 ug/kg LSD, C57BL/6J mice", "result": "robust and lasting reduction"}, {"measurement": "duration of observation over which reduced ethanol consumption was shown", "setting": "C57BL/6J mice; mice, 25 μg/kg LSD", "result": 46, "unit": "days"}, {"measurement": "group mean reduction of ethanol consumption relative to controls", "setting": "C57BL/6J mice; mice, 25 μg/kg LSD", "result": 17.9, "unit": "%"}, {"measurement": "range of doses that reliably produce accurate responding in a discrimination task or head twitch response", "setting": "rodents", "result": "0.17 to 0.2", "unit": "mg/kg"}, {"measurement": "activity at 5HT1A receptors", "setting": "5HT1A receptors", "result": "potent agonist"}, {"measurement": "activity at 5HT2A receptors", "setting": "5HT2A receptors", "result": "partial agonist"}, {"measurement": "activity at dopamine receptors", "setting": "dopamine receptors", "result": "partial agonist"}]}
